Structures are written as SMILES. pIC50: −log10 of the molar value.

Chain of Platelet-activating factor receptor (P25105 whole entry): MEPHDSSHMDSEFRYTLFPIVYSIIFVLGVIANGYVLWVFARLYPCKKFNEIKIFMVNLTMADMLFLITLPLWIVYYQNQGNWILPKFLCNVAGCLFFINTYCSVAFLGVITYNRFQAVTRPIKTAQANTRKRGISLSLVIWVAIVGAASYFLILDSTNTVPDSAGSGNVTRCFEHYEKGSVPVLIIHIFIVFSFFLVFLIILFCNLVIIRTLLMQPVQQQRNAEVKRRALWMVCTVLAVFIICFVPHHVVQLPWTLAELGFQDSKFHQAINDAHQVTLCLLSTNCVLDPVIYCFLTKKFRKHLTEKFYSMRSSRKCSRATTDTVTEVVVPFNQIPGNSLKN

This assay concerns the target Platelet-activating factor receptor (Homo sapiens, UniProt P25105). Briefly: Inhibition of [3H]PAF binding to platelet activating factor receptor in human platelet.
`C/C1=C\CC[C@]2(C)O[C@@H]3C[C@@H](C)C(C)(CC1)C1=C3[C@](O)(OC1)[C@H]2O` (single isomer, unassigned) gave a pIC50 of 5.90.

`C/C1=C\CC[C@@]2(C)O[C@@H]2[C@@]2(O)OCC3=C2[C@@H](O)C[C@@H](C)[C@]3(C)CC1`: the pIC50 was 5.84.

As to `C/C1=C\CC[C@]2(C)O[C@H]2[C@@]2(O)OCC3=C2CC[C@@H](C)[C@]3(C)CC1`, the pIC50 was 6.24.

`C/C1=C\CC[C@]2(C)O[C@@H]3C[C@@H](C)[C@](C)(CC1)[C@]14CO[C@](O)([C@H]2O)[C@]31O4` gave a negative logarithm of the IC50 (pIC50) of 5.63.

`C/C1=C\CC[C@]2(C)O[C@H]2[C@@]2(O)OCC3=C2[C@H](O)C[C@@H](C)[C@]3(C)CC1`: the pIC50 is 5.95.

The compound `C/C1=C\[C@@]2(O)OC[C@]34O[C@]23CC[C@@H](C)C4(C)CC/C(C)=C/CC1` (single isomer, unassigned) gave a pIC50 of 5.94.

On to `C/C1=C\CC[C@@]2(C)O[C@@H]2[C@@]2(O)OCC3=C2CC[C@@H](C)[C@]3(C)CC1`, for which the pIC50 is 6.24.

As usually defined, the pIC50 is −log10 of the IC50, conventionally taken in molar units. A higher pIC50 goes with a small IC50.

The record behind these values is ChEMBL document CHEMBL1140239, “Novel phomactin analogues as PAF receptor ligands” (Bioorg Med Chem Lett, 2005).
